From patent US20230123334A1, “AMINO LIPID COMPOUND, PREPARATION METHOD THEREFOR, AND APPLICATION THEREOF” (SHENZHEN SHENXIN BIOTECHNOLOGY CO., LTD., priority 2020, published 2023)

Experiments:
HEK293 cells [1] = assay: Preliminary screening as DNA vectors, GFP transfection of HEK293 cells; format: cell-based; conditions: HEK293 cells; lipid/DOPE liposome with 75 ng plasmid DNA (psin-EGFP-IRES-Puro); number of cells expressing GFP divided by total number of nuclei (Hoechst)
In short: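 Lipid + DOPE liposomes (NaOAc, pH 5.6) complexed w/ 75 ng psin-EGFP-IRES-Puro, 30 min RT; added to 3-5×10^4 HEK293/well, 37° C. Hoechst 0.2 μg/mL at 20-24 h, imaged after further 20-24 h. Efficiency = GFP+ cells / total nuclei.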

HEK293 cells [2] = assay: Preliminary screening as mRNA vectors, EGFP mRNA transfection of HEK293 cells; format: cell-based; conditions: HEK293 cells, 96-well plates, EGFP mRNA 50 ng per well; percentage of GFP fluorescent cells relative to total number of cells (Hoechst)
In short: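 Each well of HEK293 cells received 50 ng of EGFP mRNA. Efficiency was expressed as percent GFP-expressing cells over Hoechst-defined total cell number.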

CCCCCCCCCCCNc1nc(NCCCCCCC)nc(NCCN2CCN(C)CC2)n1 [Compound N7N11D5]
Absolute DNA transfection efficiency in HEK293 cells (HEK293 cells [1]): 0.6% | Absolute mRNA transfection efficiency in HEK293 cells (HEK293 cells [2]): 0.1%

CCCCCCCCCCCCCCCSc1nc(NCCN(C)C)nc(SCCCCCCCCCCC)n1 [Compound S11S15D1]
Absolute DNA transfection efficiency in HEK293 cells (HEK293 cells [1]): 0.9% | Absolute mRNA transfection efficiency in HEK293 cells (HEK293 cells [2]): 0.0%

CCCCCCCCCCCCCCCSc1nc(NCC2CCN(C)CC2)nc(SCCCCCCCCCCCCCCC)n1 [Compound S15S15D10]
Absolute DNA transfection efficiency in HEK293 cells (HEK293 cells [1]): 1.0% | Absolute mRNA transfection efficiency in HEK293 cells (HEK293 cells [2]): 0.3%

CCCCCCCCCCCCCCCCNc1nc(NCCCCCCCC)nc(NCCCN(C)C)n1 [Compound N8N16D6]
Absolute DNA transfection efficiency in HEK293 cells (HEK293 cells [1]): 2.4% | Absolute mRNA transfection efficiency in HEK293 cells (HEK293 cells [2]): 1.5%

CCCCCCCCCCCCCCCCNc1nc(NCCCCCCCCCCC)nc(NCCN2CCOCC2)n1 [Compound N11N16D2]
Absolute DNA transfection efficiency in HEK293 cells (HEK293 cells [1]): 0.0% | Absolute mRNA transfection efficiency in HEK293 cells (HEK293 cells [2]): 1.0%

CCCCCCCCCCCCCNc1nc(NCCN2CCCC2)nc(N(CCCCCCCCCCCC)CCCCCCCCCCCC)n1 [N13^2N12D3]
Absolute DNA transfection efficiency in HEK293 cells (HEK293 cells [1]): 0.6% | Absolute mRNA transfection efficiency in HEK293 cells (HEK293 cells [2]): 7.3%

CCCCCCCCCCCNc1nc(NCCCCCC)nc(NCCN(CC)CC)n1 [Compound N6N11D7]
Absolute DNA transfection efficiency in HEK293 cells (HEK293 cells [1]): 0.0% | Absolute mRNA transfection efficiency in HEK293 cells (HEK293 cells [2]): 0.0%

CCCCCCCCCCCCCCCCNc1nc(NCCCCCCCCCCCCCCC)nc(NCCN2CCCCC2)n1 [Compound N15N16D4]
Absolute DNA transfection efficiency in HEK293 cells (HEK293 cells [1]): 1.9% | Absolute mRNA transfection efficiency in HEK293 cells (HEK293 cells [2]): 1.6%

CCCCCCCNc1nc(NCCCCCC)nc(NCCCN(C)C)n1 [Compound N6N7D6]
Absolute DNA transfection efficiency in HEK293 cells (HEK293 cells [1]): 0.0% | Absolute mRNA transfection efficiency in HEK293 cells (HEK293 cells [2]): 0.1%

CCCCCCCCCCCCSc1nc(NCCN2CCCCC2)nc(SCCCCCCCCCCCC)n1 [Compound S12S12D4]
Absolute DNA transfection efficiency in HEK293 cells (HEK293 cells [1]): 4.1% | Absolute mRNA transfection efficiency in HEK293 cells (HEK293 cells [2]): 36.3%

CCCCCCCCCCCCCCSc1nc(NCC2CCN(C)CC2)nc(SCCCCCCCC)n1 [Compound S8S14D10]
Absolute DNA transfection efficiency in HEK293 cells (HEK293 cells [1]): 41.1% | Absolute mRNA transfection efficiency in HEK293 cells (HEK293 cells [2]): 60.5%

CCCCCCCCCCCCCCCCCCNc1nc(NCCCCCCCCCCCCCCCC)nc(NCCN2CCOCC2)n1 [Compound N16N18D2]
Absolute DNA transfection efficiency in HEK293 cells (HEK293 cells [1]): 1.2% | Absolute mRNA transfection efficiency in HEK293 cells (HEK293 cells [2]): 0.0%

CCCCCCCCCCCCCCCCSc1nc(NCCN2CCN(C)CC2)nc(SCCCCCCCCCCCCCCC)n1 [Compound S15S16D5]
Absolute DNA transfection efficiency in HEK293 cells (HEK293 cells [1]): 0.2% | Absolute mRNA transfection efficiency in HEK293 cells (HEK293 cells [2]): 0.2%

CCCCCCCCCSc1nc(NCCCN2CCOCC2)nc(SCCCCCCCCC)n1 [Compound S9S9D8]
Absolute DNA transfection efficiency in HEK293 cells (HEK293 cells [1]): 19.1% | Absolute mRNA transfection efficiency in HEK293 cells (HEK293 cells [2]): 14.8%

CCCCCCNc1nc(NCCCCCC)nc(NCCCN(C)C)n1 [Compound N6N6D6]
Absolute DNA transfection efficiency in HEK293 cells (HEK293 cells [1]): 0.0% | Absolute mRNA transfection efficiency in HEK293 cells (HEK293 cells [2]): 0.0%

CCCCCCCCCCCCCCCCCCNc1nc(NCCCCCCCCCCCC)nc(NCCCN2CCOCC2)n1 [Compound N12N18D8]
Absolute DNA transfection efficiency in HEK293 cells (HEK293 cells [1]): 1.5% | Absolute mRNA transfection efficiency in HEK293 cells (HEK293 cells [2]): 0.5%

CCCCCCCCCCCCCCCCCCNc1nc(NCCCCCCCCC)nc(NCCCN2CCN(C)CC2)n1 [Compound N9N18D9]
Absolute DNA transfection efficiency in HEK293 cells (HEK293 cells [1]): 0.3% | Absolute mRNA transfection efficiency in HEK293 cells (HEK293 cells [2]): 3.1%

CCCCCCCCCCCCN(CCCCCCCCCCCC)c1nc(NCCCCCCC)nc(NCCCN(C)C)n1 [N7^2N12D6]
Absolute DNA transfection efficiency in HEK293 cells (HEK293 cells [1]): 0.7% | Absolute mRNA transfection efficiency in HEK293 cells (HEK293 cells [2]): 4.8%

CCCCCCCCCCCCCNc1nc(NCCCCCCCCCCC)nc(NCCN(C)C)n1 [Compound N11N13D1]
Absolute DNA transfection efficiency in HEK293 cells (HEK293 cells [1]): 1.4% | Absolute mRNA transfection efficiency in HEK293 cells (HEK293 cells [2]): 5.9%

CCCCCCCCCCCCCNc1nc(NCCCCCCCCCCCC)nc(NCCN2CCN(C)CC2)n1 [Compound N12N13D5]
Absolute DNA transfection efficiency in HEK293 cells (HEK293 cells [1]): 0.3% | Absolute mRNA transfection efficiency in HEK293 cells (HEK293 cells [2]): 0.0%

CCCCCCCCCCCCCCCCNc1nc(NCCCCCCCC)nc(NCCCN2CCN(C)CC2)n1 [Compound N8N16D9]
Absolute DNA transfection efficiency in HEK293 cells (HEK293 cells [1]): 1.0% | Absolute mRNA transfection efficiency in HEK293 cells (HEK293 cells [2]): 0.5%

CCCCCCCCCCCCCCCCNc1nc(NCCCCCCC)nc(NCC2CCN(C)CC2)n1 [Compound N7N16D10]
Absolute DNA transfection efficiency in HEK293 cells (HEK293 cells [1]): 1.8% | Absolute mRNA transfection efficiency in HEK293 cells (HEK293 cells [2]): 3.1%

CCCCCCCCCCCCCCCCNc1nc(NCCCCCCCCCCCC)nc(NCCCN2CCN(C)CC2)n1 [Compound N12N16D9]
Absolute DNA transfection efficiency in HEK293 cells (HEK293 cells [1]): 0.9% | Absolute mRNA transfection efficiency in HEK293 cells (HEK293 cells [2]): 0.7%

CCCCCCCCCCCCCCCNc1nc(NCCCCCCCCCCCCCCC)nc(NCCN(CC)CC)n1 [Compound N15N15D7]
Absolute DNA transfection efficiency in HEK293 cells (HEK293 cells [1]): 0.5% | Absolute mRNA transfection efficiency in HEK293 cells (HEK293 cells [2]): 0.0%
